Where no end group is shown, it is not given here.
Legend:
[1] = target: T1, MAVS proteins (Mus musculus, UniProt Q8VCF0); assay: MAVS aggregation induced by LPS and nigericin, Western blot of isolated mitochondria; type: cell-based; conditions: 5 mM peptide; IC21; 1 mg/ml LPS 4 hours then 5 mM nigericin 1 hour; vs control group treated with endotoxin and nigericin
T1 construct: mitochondria in IC21 were isolated with a hypotonic buffer and centrifugation; endogenous in cells; host or cells: IC21 mouse peritoneal macrophage cell line
T1 sequence (Q8VCF0 1-503): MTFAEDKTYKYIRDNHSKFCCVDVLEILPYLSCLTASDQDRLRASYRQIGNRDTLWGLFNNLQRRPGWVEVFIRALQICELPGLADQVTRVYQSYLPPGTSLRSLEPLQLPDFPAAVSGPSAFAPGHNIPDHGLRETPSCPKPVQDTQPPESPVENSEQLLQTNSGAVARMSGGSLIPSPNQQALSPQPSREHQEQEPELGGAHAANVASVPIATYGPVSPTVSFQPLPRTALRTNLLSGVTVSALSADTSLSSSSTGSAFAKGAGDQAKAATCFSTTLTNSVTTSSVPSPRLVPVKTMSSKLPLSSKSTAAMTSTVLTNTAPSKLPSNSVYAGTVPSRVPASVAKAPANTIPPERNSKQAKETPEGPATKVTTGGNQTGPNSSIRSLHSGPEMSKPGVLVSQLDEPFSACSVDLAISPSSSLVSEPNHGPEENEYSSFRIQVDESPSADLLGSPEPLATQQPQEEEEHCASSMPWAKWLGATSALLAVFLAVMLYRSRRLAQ
Description: Specifically, the aggregation of MAVS proteins was induced by stimulation with pathogen-associated molecular patterns (PAMPs), and endotoxin (lipopolysaccharide (LPS)) and nigericin were used as the PAMPs. First, 5 mM MQP-15, MQP-23, MQP-31 or MQP-37 was added to a serum-free cell culture medium containing 1 mg/ml LPS, followed by treatment with 1×10^5 cells of a mouse peritoneal macrophage cell line (IC21) for 4 hours. Then, 5 mM MQP-15, MQP-23, MQP-31 or MQP-37 was added to a serum-free cell culture medium containing 5 mM nigericin, followed by treatment with IC21 for additional 1 hour. Thereafter, mitochondria in IC21 were isolated with a hypotonic buffer and centrifugation. Then, in order to check the result of MAVS aggregation by the Western blot, a sample was prepared using a semi-denaturing detergent in the isolated mitochondria and electrophoresis was performed. After the electrophoretically isolated mitochondrial protein was transferred to a polyvinylidene difluoride (PVDF) membrane, a primary antibody recognizing the MAVS proteins and a secondary antibody recognizing the primary antibody were additionally treated. Thereafter, the aggregation of MAVS proteins was checked by inducing a chemiluminescence reaction of the secondary antibody.

[2] = system: interferon-beta (IFN-b); assay: polyIC-induced IFN-b expression in MLE-12 cells, ELISA; type: cell-based, mouse; conditions: 5 mg/ml polyIC, 16 hours; for expression level of IFN-b: vs control group treated only with polyIC
Description: Specifically, polyinosinic:polycytidylic acid (polyIC), which is a synthetic ribonucleic acid known to be associated with viral infection among the PAMPs and promotes the production of interferon and is analogous to an RNA virus gene, was used to induce a viral infection response. First, a serum-free cell culture medium containing 5 mg/ml polyIC and MQP-15, MQP-23, MQP-31, MQP-37, MQP-Y9 or MQP-T234 was treated with 1×10^5 cells of a mouse lung epithelial cell line (MLE-12) for 16 hours. Then, the supernatant was obtained and the expression level of interferon-beta (IFN-b) was checked by enzyme-linked immunosorbent assay (ELISA).
(§1) Specifically, LPS and ATP were used to induce an inflammasome response caused by bacterial infection, and polyIC was used to induce an inflammatory response caused by viral infection. First, 1 mg/ml LPS and 5 mM or 1 mM novel alanine-substituted peptide were mixed in a serum-free cell culture medium, followed by treatment with 1×10^5 cells of IC21. Thereafter, 5 mM ATP and 5 mM or 1 mM novel alanine-substituted peptide were mixed in a serum-free cell culture medium and treated for 30 minutes. Then, the supernatant was obtained and the expression level of IL-1b was checked by ELISA. Also, 5 mg/ml polyIC and 25 mM or 2 mM novel alanine-substituted peptide were mixed in a serum-free cell culture medium, followed by treatment with 1×10^5 cells of MLE-12 for 16 hours. Thereafter, the supernatant was obtained and the expression level of IFN-b was checked by ELISA.
as §1, with “2” for “5 mM or 1”, “amino acid-substituted” for “alanine-substituted”, “and” for “and 25 mM or”
Specifically, polyIC was used to induce a viral infection response. First, a serum-free cell culture medium containing 5 mg/ml polyIC and MQP-37, MQP-37A6, MQP-37D6W, MQP-37D6Y, MQP-37D6H, MQP-37D6K, MQP-37D6R or MQP-37D6V was treated with 1×10^5 cells of MLE-12 for 16 hours. Then, the supernatant was obtained and the expression level of IFN-b was checked by ELISA.

[3] = system: NF-κB; assay: LPS-induced phosphorylation of NF-kB in IC21, Western blot; type: cell-based, mouse; conditions: 5 mM peptide, 10 ng/ml endotoxin, 6 hours, vs control treated with LPS only
Description: Specifically, LPS was used to induce an immune activation response caused by bacterial infection, and the phosphorylation of nuclear factor kappa-light-chain-enhancer of activated B cells (NF-kB) was checked to identify the mechanism of the immune activation response. […] Thereafter, the cells were washed with a PBS solution and then lysed with a RIPA buffer, and the supernatant was separated. In order to measure the change in the phosphorylation amount of NF-κB protein with the separated supernatant, the Western blot was performed as in Example 2.

[4] = system: interleukin-6 (IL-6); assay: LPS-induced IL-6 expression in IC21, ELISA; type: cell-based, mouse; conditions: 0.1 mg/ml LPS, 6 hours
Description: Specifically, LPS was used to induce an inflammatory response caused by bacterial infection. First, MQP-15, MQP-23, MQP-31, MQP-37 or MQP-Y9 was added to a serum-free cell culture medium containing 0.1 mg/ml LPS, followed by treatment with 1×10^5 cells of IC21 for 6 hours. Then, the supernatant was obtained and the expression levels of interleukin-6 (IL-6) and a tumor necrosis factor-alpha (TNF-a) were checked by ELISA.

[5] = system: IC21; assay: XTT cytotoxicity test; type: cell-based, mouse; conditions: at a concentration of 10 mM; FIGS. 4-B and 4-C
Description: Specifically, in order to check the cytotoxicity of the peptides, the XTT test method for measuring the activity of mitochondria in cells was used. First, […] 16 hours, followed by XTT assay for 1 hour to measure the amount of water-soluble formazan produced by reduction by dehydrogenase in the mitochondria.

[6] = system: interleukin-1beta (IL-1b); assay: IL-1b expression induced by LPS, OMV or LPS and nigericin in IC21, ELISA; type: cell-based, mouse; conditions: 1 mg/ml LPS 4 hours, 5 mM nigericin 1 hour, FIG. 5B-D
Description: Specifically, LPS (lipopolysaccharide) and Gram-negative bacteria-derived outer membrane vesicle (OMV) were used as endotoxins to induce the inflammasome response caused by bacterial infection. First, 5 mM MQP-15, MQP-23, MQP-31 or MQP-37 was added to a serum-free cell culture medium containing 0.1 mg/ml LPS or OMV, followed by treatment with 1×10^5 cells of IC21 for 6 hours. Also, MQP-37 or MQP-Y9 was added to a serum-free cell culture medium containing 1 mg/ml LPS and 5 mM nigericin, followed by treatment for 5 hours (LPS treatment-4 hours; nigericin treatment-1 hour). Then, the supernatant was obtained and the expression level of interleukin-1beta (IL-1b) was checked by ELISA, and the cells were lysed and subjected to SDS-PAGE, and the inflammasome factors were analyzed by the Western blot.

[7] = system: MLE-12; assay: Cytotoxicity at maximum concentration (Example 13); type: cell-based, mouse; conditions: at the maximum concentration in the experiment; FIG. 13B-F
[8] = system: IL-1b; assay: LPS/ATP-induced IL-1b expression (inflammasome response) in IC21, ELISA; type: cell-based, mouse; conditions: 1 mg/ml LPS, 5 mM ATP 30 minutes, 2 mM peptide
Description: as §1
as §1, with “2” for “5 mM or 1”, “amino acid-substituted” for “alanine-substituted”, “and” for “and 25 mM or”
Specifically, LPS was used to induce an inflammatory response caused by bacterial infection. First, MQP-37 or MQP-37A6 was added to a serum-free cell culture medium containing 0.1 mg/ml LPS, followed by treatment with 1×10^5 cells of IC21 for 6 hours. Then, the supernatant was obtained and the expression level of IL-6 was checked by ELISA. Also, the Western blot was performed and the phosphorylation of NF-κB was checked to identify the mechanism of immune activation response. Thereafter, LPS and ATP were used to induce an inflammasome response caused by bacterial infection, LPS and ATP were used. First, 1 mg/ml LPS and L- or D-MQP-37 and MQP-37A6 were mixed in a serum-free cell culture medium and treated with 1×10^5 cells of IC21. Then, 5 mM ATP and MQP-37 or MQP-37A6 were mixed in a serum-free cell culture medium and treated for 30 minutes. Thereafter, the supernatant was obtained and the expression level of IL-1b was checked by ELISA.

MQP-31: novel peptide complementary to a MAVS domain sequence (hydropathic complementarity); sequence not tied to the code in the text (DGTECR; MQP-31)
aggregation of MAVS proteins [1]: decreased
expression level of IFN-b [2]: decreased

MQP-15: novel peptide complementary to a MAVS domain sequence (hydropathic complementarity); sequence not tied to the code in the text (LKSLKTLH; MQP-15)
aggregation of MAVS proteins [1]: decreased
expression level of IFN-b [2]: decreased

KRLLFWIFIK [MQP-Y9]
phosphorylation amount of NF-κB [3]: significantly decreased
expression level of IL-6 after LPS treatment with various concentrations of peptide [4]: decreased in a concentration-dependent manner
cytotoxicity (XTT) [5]: did not exhibit any cytotoxicity
production of IL-1b after LPS and nigericin treatment [6]: inhibited in an MQP-Y9 concentration-dependent manner
expression level of IFN-b with various concentrations of peptide [2]: decreased in a concentration-dependent manner
expression level of IFN-b [2]: decreased

SLVLADARW [MQP-37]
cytotoxicity (XTT) [5]: did not exhibit any cytotoxicity

MQP-37D6W: MQP-37 whose sixth amino acid (aspartic acid) is substituted with tryptophan (SLVLAWARW; MQP-37D6W)
inflammatory response caused by viral infection (IFN-b), sixth amino acid of MQP-37 substituted, compared to the original peptide ([2]; 2 mM peptide, FIG. 10B-C): effectively inhibited even at a low peptide concentration
inhibiting the inflammatory response caused by viral infection (IFN-b), compared to MQP-37 and MQP-37A6 ([2]; concentration-dependent, FIGS. 13A-A and 13A-B): outstanding effect

SLVLAYARW [MQP-37D6Y]
cytotoxicity [7]: did not show cytotoxicity

MQP-T234: novel anti-inflammatory peptide prepared in Example 1 (KVGDRARWGSRS; MQP-T234)
expression level of IFN-b [2]: decreased

MQP-23: novel peptide complementary to a MAVS domain sequence (hydropathic complementarity); sequence not tied to the code in the text (LQHLEDGM; MQP-23)
aggregation of MAVS proteins [1]: decreased
expression level of IFN-b [2]: decreased

MQP-37D6H: MQP-37 whose sixth amino acid (aspartic acid) is substituted with histidine (SLVLAHARW; MQP-37D6H)
inflammasome response caused by bacterial infection (IL-1b), sixth amino acid of MQP-37 substituted ([8]; FIG. 10A-B): effectively
inflammatory response caused by viral infection (IFN-b) ([2]; FIGS. 13A-C and 13A-D): inhibited the inflammatory response caused by viral infection in a concentration-dependent manner

MQP-37A1: prepared by substituting the first amino acid of MQP-37A6 with alanine (ALVLADARW; MQP-37A1)
inflammasome response caused by bacterial infection (IL-1b), first amino acid substituted ([8]; FIG. 10A-A): most effectively

From US12729221B2, “Anti-inflammatory peptide and use thereof” (MITO QUEST CO., LTD., priority 2020, dated 2026)
